Measured values from US8357700B2, “2,3-disubstituted piperidine orexin receptor antagonists” (Merck Sharp & Dohme Corp., priority 2008, dated 2013).

What was measured:
orexin-2 receptor (OX2R) = target: T1, orexin-2 receptor (OX2R) (Homo sapiens, UniProt O43614); test: radioligand binding assay, membranes from CHO cells expressing OX2 receptor; conditions: CHO cell membranes
T1 construct: expressed in transfected cells; host or cells: CHO cells (membranes)
T1 sequence (O43614 1-444): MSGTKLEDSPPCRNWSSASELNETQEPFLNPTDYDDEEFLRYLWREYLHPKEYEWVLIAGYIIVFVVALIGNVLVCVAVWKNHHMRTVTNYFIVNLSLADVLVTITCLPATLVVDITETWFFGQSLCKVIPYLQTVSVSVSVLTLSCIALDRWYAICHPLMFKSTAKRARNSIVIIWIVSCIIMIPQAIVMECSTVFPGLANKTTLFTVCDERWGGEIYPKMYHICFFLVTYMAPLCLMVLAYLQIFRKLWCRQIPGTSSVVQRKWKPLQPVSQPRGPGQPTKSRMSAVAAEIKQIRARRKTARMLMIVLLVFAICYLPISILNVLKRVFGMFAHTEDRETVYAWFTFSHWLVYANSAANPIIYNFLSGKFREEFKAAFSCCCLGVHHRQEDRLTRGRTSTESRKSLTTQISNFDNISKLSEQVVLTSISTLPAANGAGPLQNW
Method: (§1) The utility of the compounds in accordance with the present invention as orexin receptor OX1R and/or OX2R antagonists may be readily determined without undue experimentation by methodology well known in the art, including the “FLIPR Ca^2+ Flux Assay” (Okumura et al., Biochem. Biophys. Res. Comm. 280:976-981, 2001). In a typical experiment the OX1 and OX2 receptor antagonistic activity of the compounds of the present invention was determined in accordance with the following experimental method. For intracellular calcium measurements, Chinese hamster ovary (CHO) cells expressing the rat OX1 receptor or the human OX2 receptor, are grown in Iscove's modified DMEM containing 2 mM L-glutamine, […], 1% hypoxanthine-thymidine supplement, 100 U/ml penicillin, 100 ug/ml streptomycin and 10% heat-inactivated fetal calf serum (FCS). The cells are seeded at 20,000 cells/well into Becton-Dickinson black 384-well clear bottom sterile plates coated with poly-D-lysine. All reagents were from GIBCO-Invitrogen Corp. The seeded plates are incubated overnight at 37° C. and 5% CO2. Ala-6,12 human orexin-A as the agonist is prepared as a 1 mM stock solution in 1% bovine serum albumin (BSA) and diluted in assay buffer (HBSS containing 20 mM HEPES, 0.1% BSA and 2.5 mM probenecid, pH7.4) for use in the assay at a final concentration of 70 pM. Test compounds are prepared as 10 mM stock solution in DMSO, then diluted in 384-well plates, first in DMSO, then assay buffer. On the day of the assay, cells are washed 3 times with 100 ul assay buffer and then incubated for 60 min (37° C., 5% CO2) in 60 ul assay buffer containing 1 uM Fluo-4AM ester, 0.02% pluronic acid, and 1% BSA. The dye loading solution is then aspirated and cells are washed 3 times with 100 ul assay buffer. 30 ul of that same buffer is left in each well. Within the Fluorescent Imaging Plate Reader (FLIPR, Molecular Devices), test compounds are added to the plate in a volume of 25 ul, incubated for 5 min and finally 25 ul of agonist is added. Fluorescence is measured for each well at 1 second intervals for 5 minutes and the height of each fluorescence peak is compared to the height of the fluorescence peak induced by 70 pM Ala-6,12 orexin-A with buffer in place of antagonist. For each antagonist, IC50 value (the concentration of compound needed to inhibit 50% of the agonist response) is determined. Alternatively, compound potency can be assessed by a radioligand binding assay (described in Bergman et. al. Bioorg. Med. Chem. Lett. 2008, 18, 1425-1430) in which the inhibition constant (Ki) is determined in membranes prepared from CHO cells expressing either the orexin-1 (OX1) or orexin-2 (OX2) receptor. The intrinsic orexin receptor antagonist activity of a compound which may be used in the present invention may be determined by these assays.

orexin-1 receptor (OX1R) = target: T2, orexin-1 receptor (OX1R) (UniProt O43613); test: radioligand binding assay, membranes from CHO cells expressing OX1 receptor; conditions: CHO cell membranes
T2 sequence (O43613 1-425): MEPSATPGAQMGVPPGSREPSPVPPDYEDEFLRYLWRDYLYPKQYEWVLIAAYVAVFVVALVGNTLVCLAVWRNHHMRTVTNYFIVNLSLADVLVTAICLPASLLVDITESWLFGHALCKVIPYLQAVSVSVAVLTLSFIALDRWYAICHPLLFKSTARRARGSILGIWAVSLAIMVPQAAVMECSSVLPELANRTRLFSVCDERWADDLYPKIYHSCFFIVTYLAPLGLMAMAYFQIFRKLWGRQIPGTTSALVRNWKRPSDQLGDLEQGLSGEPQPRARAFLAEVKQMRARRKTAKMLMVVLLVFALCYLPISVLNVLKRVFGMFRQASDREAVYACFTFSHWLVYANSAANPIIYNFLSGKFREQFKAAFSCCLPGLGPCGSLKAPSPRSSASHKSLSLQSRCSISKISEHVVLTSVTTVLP
Method: as §1

Structure (SMILES) | Ki (orexin-2 receptor (OX2R)) [nM] | Ki (orexin-1 receptor (OX1R)) [nM]
Cc1ccc(-n2nccn2)c(C(=O)N2CCC[C@@H](COc3ccc(Br)cn3)[C@@H]2C)c1 (stereo in doubt) [A-7, 5-bromo-2-({2-methyl-1-[5-methyl-2-(2H-1,2,3-triazol-2-yl)benzoyl]piperidin-3-yl}methoxy)pyridine] | 6.4 | 1.1
Cc1ccc(-n2nccn2)c(C(=O)N2CCC[C@@H](COc3nccc4ccccc34)[C@@H]2C)c1 (stereo in doubt) [A-8, 1-({2-methyl-1-[5-methyl-2-(2H-1,2,3-triazol-2-yl)benzoyl]piperidin-3-yl}methoxy)isoquinoline] | 2.1 | 0.5
Cc1ccc(-n2nccn2)c(C(=O)N2CCC[C@@H](COc3cccc(Br)n3)[C@@H]2C)c1 (stereo in doubt) [A-9, 2-bromo-6-({2-methyl-1-[5-methyl-2-(2H-1,2,3-triazol-2-yl)benzoyl]piperidin-3-yl}methoxy)pyridine] | 7.5 | 2.7
Cc1ccc(-n2nccn2)c(C(=O)N2CCC[C@@H](COc3ccnc4ccccc34)[C@@H]2C)c1 (stereo in doubt) [A-10, 4-({2-methyl-1-[5-methyl-2-(2H-1,2,3-triazol-2-yl)benzoyl]piperidin-3-yl}methoxy)quinoline] | 2.6 | 0.6
Cc1ccc(-n2nccn2)c(C(=O)N2CCC[C@@H](COc3ccccn3)[C@@H]2C)c1 [A-6] | 39 | 1
